Measured values taken from patent US12077503B2, “Substituted cyclic amides and their use as herbicides” (FMC CORPORATION, priority 2015, dated 2024).

Columns and labels:
Assay type in all cases: in vivo
[1] = tested on: barnyardgrass (Echinochloa crus-galli); assay: Test B flooded paddy test; settings: Flood, 250 g ai/ha; for Plant response rating, Barnyardgrass: 0 to 100 scale where 0 is no effect and 100 is complete control, 13 to 15 d
Summary of the method: (§1)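 Evaluation by eye, against controls, occurred 13–15 d post-treatment in a greenhouse, using a 0 (no effect) to 100 (complete control) scale. Application was into the paddy water, 3 cm deep over the soil, on 2-leaf plants.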

[2] = tested on: ducksalad (Heteranthera limosa); assay: Test B flooded paddy test; settings: Flood, 250 g ai/ha; for Plant response rating, Ducksalad: 0 to 100 scale where 0 is no effect and 100 is complete control, 13 to 15 d
Summary of the method: as §1

[3] = tested on: sedge, umbrella (small-flower umbrella sedge, Cyperus difformis); assay: Test B flooded paddy test; settings: Flood, 250 g ai/ha; scale of 0 to 100 where 0 is no effect and 100 is complete control
Summary of the method: as §1

rice (Oryra sativa) = assay: Test B flooded paddy test; settings: Flood, 250 g ai/ha; for Plant response rating, Rice: 0 to 100 scale where 0 is no effect and 100 is complete control, 13 to 15 d
Summary of the method: as §1

[4] = tested on: barnyardgrass (Echinochloa crus-galli); assay: Test A postemergence; settings: postemergence; for Plant response rating, Barnyardgrass: 0 to 100 scale (0 no effect, 100 complete control)
Summary of the method: (§2)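 Greenhouse, ~10 d after spray; visual injury vs untreated controls, 0 = no effect, 100 = complete control. Preemergence: directed soil spray over planted seeds. Postemergence: plants 2–10 cm, 1–2 leaf stage. Loam/sand blend. Compound in non-phytotoxic solvent with surfactant.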

[5] = tested on: wheat (Triticum aestivum); assay: Test A postemergence; settings: postemergence; for Plant response rating, Wheat: 0 to 100 scale (0 no effect, 100 complete control)
Summary of the method: as §2

corn (Zea mays) = assay: Test A postemergence; settings: postemergence; for Plant response rating, Corn: 0 to 100 scale (0 no effect, 100 complete control)
Summary of the method: as §2

[6] = tested on: ryegrass, Italian (Italian ryegrass, Lolium multiflorum); assay: Test A postemergence; settings: postemergence; for Plant response rating, Ryegrass, Italian: 0 to 100 scale (0 no effect, 100 complete control)
Summary of the method: as §2

Kochia (Kochia scoparia) [7] = assay: Test A postemergence; settings: postemergence; for Plant response rating, Kochia: 0 to 100 scale (0 no effect, 100 complete control)
Summary of the method: as §2

[8] = tested on: giant foxtail (Setaria faberii); assay: Test A postemergence; settings: postemergence; for Plant response rating, Foxtail, Giant: 0 to 100 scale (0 no effect, 100 complete control)
Summary of the method: as §2

[9] = tested on: Galium (catchweed bedstraw, Galium aparine); assay: Test A postemergence; settings: postemergence; for Plant response rating, Galium: 0 to 100 scale (0 no effect, 100 complete control)
Summary of the method: as §2

[10] = tested on: ragweed (common ragweed, Ambrosia elatior); assay: Test A postemergence; settings: postemergence; for Plant response rating, Ragweed: 0 to 100 scale (0 no effect, 100 complete control)
Summary of the method: as §2

[11] = tested on: pigweed (Amaranthus retroflexus); assay: Test A postemergence; settings: postemergence; for Plant response rating, Pigweed: 0 to 100 scale (0 no effect, 100 complete control)
Summary of the method: as §2

[12] = tested on: blackgrass (Alopecurus myosuroides); assay: Test A postemergence; settings: postemergence; for Plant response rating, Blackgrass: 0 to 100 scale (0 no effect, 100 complete control)
Summary of the method: as §2

[13] = tested on: barnyardgrass (Echinochloa crus-galli); assay: Test A preemergence
Summary of the method: as §2

[14] = tested on: ryegrass, Italian (Italian ryegrass, Lolium multiflorum); assay: Test A preemergence
Summary of the method: as §2

Kochia (Kochia scoparia) [15] = assay: Test A preemergence
Summary of the method: as §2

[16] = tested on: giant foxtail (Setaria faberii); assay: Test A preemergence
Summary of the method: as §2

[17] = tested on: ragweed (common ragweed, Ambrosia elatior); assay: Test A preemergence
Summary of the method: as §2

[18] = tested on: pigweed (Amaranthus retroflexus); assay: Test A preemergence
[19] = 125 g ai/ha, visual rating after approx. 10 d
[20] = 500 g ai/ha, visual injury, approx. 10 d
[21] = 125 g ai/ha, visual injury after approximately 10 d
[22] = 125 g ai/ha, Preemergence, visual injury after approximately 10 d, 0 to 100 scale where 0 is no effect and 100 is complete control
[23] = 500 g ai/ha, preemergence, 0 to 100 scale, 0 = no effect, 100 = complete control
[24] = 125 g ai/ha, preemergence, visual rating after approx. 10 d, 0 to 100 scale where 0 is no effect and 100 is complete control
[25] = scale of 0 to 100 where 0 is no effect and 100 is complete control
[26] = 125 g ai/ha, visual injury rating after approximately 10 d
[27] = 125 g ai/ha, preemergence, 0 to 100 scale where 0 is no effect and 100 is complete control
[28] = 500 g ai/ha, Preemergence, visual injury vs untreated controls after approximately 10 d

With `CN1CC(c2ccc(C(C)(F)F)cc2)C(C(=O)Nc2ccc(F)cc2F)C1=O` (centres unmarked) [Compound 693] the “Plant response rating, Barnyardgrass” value [1] was 75, the “Plant response rating, Ducksalad” value [2] was 70 and the “Sedge, Umbrella plant response rating” value [3] was 0. The “Plant response rating, Rice” value (rice (Oryra sativa)) was 20, the “Plant response rating, Barnyardgrass” value [4, 19] was 70 and the “Plant response rating, Barnyardgrass” value [4, 20] was 80. For the same molecule, the “Plant response rating, Wheat” value [5, 21] was 0, the “Plant response rating, Wheat” value [5, 20] was 50 and the “Plant response rating, Corn” value (corn (Zea mays); [21]) was 40. For the same molecule, the “Plant response rating, Corn” value (corn (Zea mays); [20]) was 70, the “Plant response rating, Ryegrass, Italian” value [6, 21] was 50 and the “Plant response rating, Ryegrass, Italian” value [6, 20] was 70. The “Plant response rating, Kochia” value (Kochia (Kochia scoparia) [7]; [21]) was 60, the “Plant response rating, Kochia” value (Kochia (Kochia scoparia) [7]; [20]) was 70 and the “Plant response rating, Foxtail, Giant” value [8, 21] was 80. For the same molecule, the “Plant response rating, Foxtail, Giant” value [8, 20] was 80, the “Plant response rating, Galium” value [9, 21] was 60 and the “Plant response rating, Galium” value [9, 20] was 70. The “Plant response rating, Ragweed” value [10, 21] was 0, the “Plant response rating, Ragweed” value [10, 20] was 10 and the “Plant response rating, Pigweed” value [11, 21] was 10. The “Plant response rating, Pigweed” value [11, 20] was 70, the “Plant response rating, Blackgrass” value [12, 19] was 10 and the “Plant response rating, Blackgrass” value [12, 20] was 50. For the same molecule, the “Plant response rating, Barnyardgrass” value [13, 22] was 80, the “Plant response rating, Barnyardgrass” value [13, 23] was 90 and the “Plant response rating, Ryegrass, Italian” value [14, 24] was 60. The “Plant response rating, Ryegrass, Italian” value [14, 23] was 70, the “Plant response rating, Kochia” value (Kochia (Kochia scoparia) [15]; [22]) was 80 and the “Plant response rating, Kochia” value (Kochia (Kochia scoparia) [15]; [23]) was 90. The “Plant response rating, Foxtail, Giant” value [16, 22] was 90, the “Plant response rating, Foxtail, Giant” value [16, 23] was 90 and the “Plant response rating, Ragweed” value [17, 24] was 50. For the same molecule, the “Plant response rating, Ragweed” value [17, 23] was 60, the “Plant response rating, Pigweed” value [18, 24] was 70 and the “Plant response rating, Pigweed” value [18, 23] was 80.
`CCC1(C(=O)Nc2cccc(F)c2F)C(=O)N(C)CC1c1cccc(C(F)(F)F)c1` (centres unmarked) [Compound 694] was tested, and the “Plant response rating, Barnyardgrass” value [1] was 0, the “Plant response rating, Ducksalad” value [2] was 20 and the “Sedge, Umbrella plant response rating” value [3] was 0. The “Plant response rating, Rice” value (rice (Oryra sativa)) was 0, the “Plant response rating, Barnyardgrass” value [4, 19] was 50 and the “Plant response rating, Barnyardgrass” value [4, 20] was 70. The “Plant response rating, Wheat” value [5, 21] was 0, the “Plant response rating, Wheat” value [5, 20] was 0 and the “Plant response rating, Corn” value (corn (Zea mays); [21]) was 0. For the same molecule, the “Plant response rating, Corn” value (corn (Zea mays); [20]) was 0, the “Plant response rating, Ryegrass, Italian” value [6, 21] was 0 and the “Plant response rating, Ryegrass, Italian” value [6, 20] was 50. The “Plant response rating, Kochia” value (Kochia (Kochia scoparia) [7]; [21]) was 0, the “Plant response rating, Kochia” value (Kochia (Kochia scoparia) [7]; [20]) was 0 and the “Plant response rating, Foxtail, Giant” value [8, 21] was 50. The “Plant response rating, Foxtail, Giant” value [8, 20] was 80, the “Plant response rating, Galium” value [9, 21] was 0 and the “Plant response rating, Galium” value [9, 20] was 0. The “Plant response rating, Ragweed” value [10, 21] was 0, the “Plant response rating, Ragweed” value [10, 20] was 0 and the “Plant response rating, Pigweed” value [11, 21] was 20. For the same molecule, the “Plant response rating, Pigweed” value [11, 20] was 50, the “Plant response rating, Blackgrass” value [12, 19] was 10 and the “Plant response rating, Blackgrass” value [12, 20] was 30. The “Plant response rating, Barnyardgrass” value [13, 22] was 70, the “Plant response rating, Barnyardgrass” value [13, 23] was 90 and the “Plant response rating, Ryegrass, Italian” value [14, 24] was 0. For the same molecule, the “Plant response rating, Ryegrass, Italian” value [14, 23] was 10, the “Plant response rating, Kochia” value (Kochia (Kochia scoparia) [15]; [22]) was 0 and the “Plant response rating, Kochia” value (Kochia (Kochia scoparia) [15]; [23]) was 0. The “Plant response rating, Foxtail, Giant” value [16, 22] was 90, the “Plant response rating, Foxtail, Giant” value [16, 23] was 90 and the “Plant response rating, Ragweed” value [17, 24] was 0. For the same molecule, the “Plant response rating, Ragweed” value [17, 23] was 0, the “Plant response rating, Pigweed” value [18, 24] was 0 and the “Plant response rating, Pigweed” value [18, 23] was 0.
`O=C1NC[C@H](c2cccc(C(F)(F)F)c2)[C@H]1C(=O)Nc1ccccc1[N+](=O)[O-]` [Compound 825] was tested, and the “Barnyardgrass plant response rating” value [1, 25] was 0, the “Ducksalad plant response rating” value [2, 25] was 80 and the “Sedge, Umbrella plant response rating” value [3] was 0. The “Rice plant response rating” value (rice (Oryra sativa); [25]) was 25, the “Barnyardgrass plant response rating (0 to 100 scale, 0 no effect, 100 complete control)” value [4, 26] was 80 and the “Wheat plant response rating (0 to 100 scale, 0 no effect, 100 complete control)” value [5, 26] was 40. The “Corn plant response rating (0 to 100 scale, 0 no effect, 100 complete control)” value (corn (Zea mays); [26]) was 20, the “Ryegrass, Italian plant response rating (0 to 100 scale, 0 no effect, 100 complete control)” value [6, 26] was 20 and the “Kochia plant response rating (0 to 100 scale, 0 no effect, 100 complete control)” value (Kochia (Kochia scoparia) [7]; [26]) was 0. The “Foxtail, Giant plant response rating (0 to 100 scale, 0 no effect, 100 complete control)” value [8, 26] was 90, the “Galium plant response rating (0 to 100 scale, 0 no effect, 100 complete control)” value [9, 26] was 30 and the “Ragweed plant response rating (0 to 100 scale, 0 no effect, 100 complete control)” value [10, 26] was 20. The “Pigweed plant response rating (0 to 100 scale, 0 no effect, 100 complete control)” value [11, 26] was 0, the “Blackgrass plant response rating (0 to 100 scale, 0 no effect, 100 complete control)” value [12, 26] was 40 and the “Barnyardgrass plant response rating” value [13, 27] was 70. For the same molecule, the “Barnyardgrass plant response rating (0 to 100 scale where 0 is no effect and 100 is complete control)” value [13, 28] was 90, the “Ryegrass, Italian plant response rating” value [14, 27] was 20 and the “Ryegrass, Italian plant response rating (0 to 100 scale where 0 is no effect and 100 is complete control)” value [14, 28] was 40. The “Kochia plant response rating” value (Kochia (Kochia scoparia) [15]; [27]) was 20, the “Kochia plant response rating (0 to 100 scale where 0 is no effect and 100 is complete control)” value (Kochia (Kochia scoparia) [15]; [28]) was 60 and the “Foxtail, Giant plant response rating” value [16, 27] was 90. For the same molecule, the “Foxtail, Giant plant response rating (0 to 100 scale where 0 is no effect and 100 is complete control)” value [16, 28] was 90, the “Ragweed plant response rating” value [17, 27] was 20 and the “Ragweed plant response rating (0 to 100 scale where 0 is no effect and 100 is complete control)” value [17, 28] was 20. For the same molecule, the “Pigweed plant response rating” value [18, 27] was 0 and the “Pigweed plant response rating (0 to 100 scale where 0 is no effect and 100 is complete control)” value [18, 28] was 30.
